Measured values from ChEMBL document CHEMBL1201862, “PubChem BioAssay data set” (2004).
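Briefly, cells in 96-well plates were exposed to five compound concentrations for 48 h, and endpoints were estimated by linear interpolation. The concentration for 50% growth inhibition is given as GI50.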 Active and inactive are the calls of the source. Rule as the data show it: active = GI50 up to about 1.1 µM and inactive = higher.

Legend:
Assay in all cases: growth of human tumour cells (NCI), 48 h
[1] = tested on: SR
[2] = tested on: HT-29
[3] = tested on: Malme-3M
[4] = tested on: NCI/ADR-RES
[5] = tested on: UACC-62
[6] = tested on: SK-MEL-5
[7] = tested on: MOLT-4
[8] = tested on: T47D
[9] = tested on: HOP-62
[10] = tested on: K562
[11] = tested on: MDA-N
[12] = tested on: IGROV-1
[13] = tested on: OVCAR-5
[14] = tested on: EKVX
[15] = tested on: OVCAR-3
[16] = tested on: SK-MEL-28
[17] = tested on: NCI-H226
[18] = tested on: TK-10
[19] = tested on: SK-OV-3
[20] = tested on: OVCAR-4
[21] = tested on: RPMI-8226
[22] = tested on: KM12
[23] = tested on: SF-295
[24] = tested on: CCRF-CEM
[25] = tested on: MDA-MB-435
[26] = tested on: 786-0
[27] = tested on: MCF7
[28] = tested on: CAKI-1
[29] = tested on: SF-539
[30] = tested on: SNB-19
[31] = tested on: DU-145
[32] = tested on: PC-3
[33] = tested on: RXF 393
[34] = tested on: NCI-H23
[35] = tested on: ACHN
[36] = tested on: SF-268
[37] = tested on: UACC-257
[38] = tested on: HL-60
[39] = tested on: HCT-15
[40] = tested on: HOP-92
[41] = tested on: NCI-H460
[42] = tested on: SN12C
[43] = tested on: SW-620
[44] = tested on: COLO 205
[45] = tested on: Hs-578T
[46] = tested on: LOX IMVI
[47] = tested on: M14
[48] = tested on: HCC 2998
[49] = tested on: OVCAR-8
[50] = tested on: U-251
[51] = tested on: NCI-H522
[52] = tested on: MDA-MB-231
[53] = tested on: HCT-116

CS/C=C\C(=O)O[C@H]1C[C@@H]2[C@@H](O)c3occ(C)c3C[C@]2(C)[C@@H](C)C1
GI50 [1]: 35.1 µM (inactive)
GI50 [2]: 22.6 µM (inactive)
GI50 [3]: 18.3 µM (inactive)
GI50 [4]: 18.5 µM (inactive)
GI50 [5]: 17.9 µM (inactive)
GI50 [6]: 14.9 µM (inactive)
GI50 [7]: 20.7 µM (inactive)
GI50 [8]: 24.4 µM (inactive)
GI50 [9]: 23.2 µM (inactive)
GI50 [10]: 15.4 µM (inactive)
GI50 [11]: 20.3 µM (inactive)
GI50 [12]: 20.4 µM (inactive)
GI50 [13]: 34.8 µM (inactive)
GI50 [14]: 37.5 µM (inactive)
GI50 [15]: 16.4 µM (inactive)
GI50 [16]: 19.8 µM (inactive)
GI50 [17]: 13.4 µM (inactive)
GI50 [18]: 50 µM (inactive)
GI50 [19]: 36.6 µM (inactive)
GI50 [20]: 22.2 µM (inactive)
GI50 [21]: 30.4 µM (inactive)
GI50 [22]: 91 µM (inactive)
GI50 [23]: 29.6 µM (inactive)
GI50 [24]: 27.3 µM (inactive)
GI50 [25]: 23.1 µM (inactive)
GI50 [26]: 16.6 µM (inactive)
GI50 [27]: 31.9 µM (inactive)
GI50 [28]: 39.7 µM (inactive)
GI50 [29]: 21.7 µM (inactive)
GI50 [30]: 35.6 µM (inactive)
GI50 [31]: 27.9 µM (inactive)
GI50 [32]: 41.2 µM (inactive)
GI50 [33]: 22.9 µM (inactive)
GI50 [34]: 30.3 µM (inactive)
GI50 [35]: 24.9 µM (inactive)
GI50 [36]: 28 µM (inactive)
GI50 [37]: 14.8 µM (inactive)
GI50 [38]: 14.9 µM (inactive)
GI50 [39]: 30.1 µM
GI50 [40]: 25.8 µM (inactive)
GI50 [41]: 21.6 µM (inactive)
GI50 [42]: 16 µM (inactive)
GI50 [43]: 33.3 µM (inactive)
GI50 [44]: 17.9 µM (inactive)
GI50 [45]: 29.6 µM (inactive)
GI50 [46]: 17.6 µM (inactive)
GI50 [47]: 20.3 µM (inactive)
GI50 [48]: 29.2 µM (inactive)
GI50 [49]: 22.6 µM (inactive)
GI50 [50]: 2.96 µM (inactive)
GI50 [51]: 23.2 µM (inactive)
GI50 [52]: 22.4 µM (inactive)
GI50 [53]: 17.5 µM (inactive)
